Reference: ChEMBL document CHEMBL2029332, “Identification of binding specificity-determining features in protein families” (J Med Chem, 2012)

Tests used:
[1] = biological target: T1, Tyrosine-protein kinase ZAP-70 (Homo sapiens, UniProt P43403); assay: Inhibition of human recombinant ZAP70 using EEEEYEEEE as substrate by ESI-MS analysis
T1 sequence (P43403 whole entry): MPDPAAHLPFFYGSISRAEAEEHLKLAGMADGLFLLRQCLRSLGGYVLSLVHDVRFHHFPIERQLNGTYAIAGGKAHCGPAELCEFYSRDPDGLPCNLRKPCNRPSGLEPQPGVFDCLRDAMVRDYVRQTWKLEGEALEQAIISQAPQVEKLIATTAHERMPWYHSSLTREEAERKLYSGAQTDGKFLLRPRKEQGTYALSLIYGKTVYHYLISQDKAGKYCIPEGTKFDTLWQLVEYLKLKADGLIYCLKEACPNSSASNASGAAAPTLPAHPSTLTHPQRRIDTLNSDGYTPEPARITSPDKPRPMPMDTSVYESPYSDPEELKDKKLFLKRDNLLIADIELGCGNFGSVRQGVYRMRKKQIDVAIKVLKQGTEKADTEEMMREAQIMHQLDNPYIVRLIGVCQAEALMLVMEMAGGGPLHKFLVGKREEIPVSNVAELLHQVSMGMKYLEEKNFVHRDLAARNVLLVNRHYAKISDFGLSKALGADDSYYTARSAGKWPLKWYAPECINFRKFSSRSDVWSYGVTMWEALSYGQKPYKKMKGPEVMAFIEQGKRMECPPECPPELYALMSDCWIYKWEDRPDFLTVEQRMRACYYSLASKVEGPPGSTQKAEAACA

[2] = biological target: Cyclin-dependent kinase 2/cyclin E1 (Homo sapiens, UniProt P24941); assay: Inhibition of human recombinant CDK2/CycE using HHASPRK as substrate by ESI-MS analysis; assay type: protein-complex assay
[3] = biological target: Protein-tyrosine kinase 2-beta (Homo sapiens, UniProt Q14289); assay: Inhibition of human recombinant PYK2 by ESI-MS analysis
Sequence of Protein-tyrosine kinase 2-beta (Q14289 whole entry): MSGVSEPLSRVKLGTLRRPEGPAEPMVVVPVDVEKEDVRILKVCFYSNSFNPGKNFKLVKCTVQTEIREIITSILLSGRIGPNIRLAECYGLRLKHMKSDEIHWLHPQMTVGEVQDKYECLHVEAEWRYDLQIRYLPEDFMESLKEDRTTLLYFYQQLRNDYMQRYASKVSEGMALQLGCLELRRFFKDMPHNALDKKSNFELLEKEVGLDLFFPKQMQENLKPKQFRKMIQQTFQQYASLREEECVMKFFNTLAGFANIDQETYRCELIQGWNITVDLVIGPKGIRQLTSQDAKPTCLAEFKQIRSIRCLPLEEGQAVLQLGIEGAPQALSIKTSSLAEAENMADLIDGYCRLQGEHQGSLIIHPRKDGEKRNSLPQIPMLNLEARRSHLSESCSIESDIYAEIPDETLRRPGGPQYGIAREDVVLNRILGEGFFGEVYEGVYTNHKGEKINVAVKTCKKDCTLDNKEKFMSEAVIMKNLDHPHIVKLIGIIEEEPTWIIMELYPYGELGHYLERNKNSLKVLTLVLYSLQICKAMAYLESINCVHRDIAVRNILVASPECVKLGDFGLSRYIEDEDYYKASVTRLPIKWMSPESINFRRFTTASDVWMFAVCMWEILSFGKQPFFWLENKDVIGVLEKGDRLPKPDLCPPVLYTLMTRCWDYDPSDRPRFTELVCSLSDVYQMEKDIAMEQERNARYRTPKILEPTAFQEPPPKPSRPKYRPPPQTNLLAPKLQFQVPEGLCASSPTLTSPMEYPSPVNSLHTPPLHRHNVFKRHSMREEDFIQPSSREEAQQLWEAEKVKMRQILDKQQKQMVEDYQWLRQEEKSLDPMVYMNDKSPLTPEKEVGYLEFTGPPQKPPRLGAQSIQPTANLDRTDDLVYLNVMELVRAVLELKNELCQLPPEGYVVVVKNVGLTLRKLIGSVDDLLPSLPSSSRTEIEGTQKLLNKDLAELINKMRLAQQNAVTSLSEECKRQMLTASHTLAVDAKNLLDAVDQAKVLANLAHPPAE

| Structure (SMILES) | Ki [1] [µM] | Ki [2] [µM] | Ki [3] [µM] |
| --- | --- | --- | --- |
| Cc1[nH]c(/C=C2\C(=O)Nc3ccc(S(=O)(=O)N(C)c4cccc(Cl)c4)cc32)c(C)c1C(=O)N1CCN(C)CC1 | > 10 | 0.49 | 0.0105 |
| NS(=O)(=O)c1ccc(Nc2nc(OCC3CCCCC3)c3nc[nH]c3n2)cc1 | > 10 | – | > 10 |
| NS(=O)(=O)c1ccc(N/N=C2\C(=O)Nc3ccc(Br)cc32)cc1 | > 10 | – | > 10 |
| CCCCc1c(-c2ccc(OC)cc2)[nH]c2nccnc12 [ALOISINE] | 2.63 | 0.000525 | 0.933 |
| CN(C)c1ncnc2nc[nH]c12 [DIMETHYLADENINE] | > 10 | 1.1 | > 10 |
| O=C1C(C2=C3C(=Nc4ccccc43)/C(=C\c3ccc(O)cc3)C2=O)=C2C(=Nc3ccccc32)/C1=C\c1ccc(O)cc1 [SCYTONEMIN] | 1.55 | 0.372 | > 10 |
| N#CC(C#N)=Cc1ccc(O)c(O)c1 [TYRPHOSTIN 23] | – | 0.617 | – |
